Data from patent US6737383B1, “Herbicidal oxadiazolidines” (priority 1999, dated 2004).

Columns and labels:
morningglory = experiment: Test B pre/postemergence morningglory; assay type: in vivo, Ipomoea hederacea
Outline: (§1)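 Herbicidal effect was estimated by eye on a ten-point control scale after plants spent twelve to sixteen days in a greenhouse following soil or foliar treatment. Foliar sprays targeted plants at one to four leaves; all doses were formulated in a non-phytotoxic solvent with surfactant.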

blackgrass = experiment: Test B pre/postemergence blackgrass; assay type: in vivo, Alopecurus myosuroides
Outline: as §1

soybean = experiment: Test B pre/postemergence soybean; assay type: in vivo, Glycine max
Outline: as §1

purple nutsedge = experiment: Test B pre/postemergence purple nutsedge; assay type: in vivo, Cyperus rotundus
Description: (§2) Seeds of bedstraw (Galium aparine), blackgrass (Alopecurus myosuroides), surinam grass (Brachiaria decumbens), cocklebur (Xanthium strumarium), corn (Zea mays), crabgrass (Digitaria sanguinalis), giant foxtail (Setaria faberii), morningglory (Ipomoea hederacea), pigweed (Amaranthus retroflexus), rape (Brassica napus), soybean (Glycine max), sugar beet (Beta vulgaris), velvetleaf (Abutilon theophrasti), wheat (Triticum aestivum), wild oat (Avena fatua) and purple nutsedge (Cyperus rotundus) tubers were planted and treated preemnergence with test chemicals formulated in a non-phytotoxic solvent mixture which included a surfactant.
(§3) At the same time, these crop and weed species were also treated with postemergence applications of test chemicals formulated in the same manner. Plants ranged in height from 2 to 18 cm (1- to 4-leaf stage) for postemergence treatments. Plant species in the flood test consisted of rice (Oryza sativa), smallflower flatsedge (Cyperus difformis), duck salad (Heteranthera limosa) and bamyardgrass (Echinochloa crus-galli) grown to the 2-leaf stage for testing. Treated plants and controls were maintained in a greenhouse for twelve to sixteen days, after which all species were compared to controls and visually evaluated. Plant response ratings, summarized in Table B, are based on a scale of 0 to 10 where 0 is no effect and 10 is complete control. A dash (−) response means no test result.

surinam grass = experiment: Test B pre/postemergence surinam grass; assay type: in vivo, Brachiaria decumbens
Outline: as §1

wild oat = experiment: Test B pre/postemergence wild oat; assay type: in vivo, Avena fatua
Outline: as §1

crabgrass = experiment: Test B pre/postemergence crabgrass; assay type: in vivo, Digitaria sanguinalis
Description: as §2, §3

velvetleaf = experiment: Test B pre/postemergence velvetleaf; assay type: in vivo, Abutilon theophrasti
Description: as §2, §3

bedstraw = experiment: Test B pre/postemergence bedstraw; assay type: in vivo, Galium aparine
Outline: as §1

wheat = experiment: Test B pre/postemergence wheat; assay type: in vivo, Triticum aestivum
Description: as §2, §3

rape = experiment: Test B pre/postemergence rape; assay type: in vivo, Brassica napus
Description: as §2, §3

pigweed = experiment: Test B pre/postemergence pigweed; assay type: in vivo, Amaranthus retroflexus
Outline: as §1

sugar beet = experiment: Test B pre/postemergence sugar beet; assay type: in vivo, Beta vulgaris
Outline: as §1

giant foxtail = experiment: Test B pre/postemergence giant foxtail; assay type: in vivo, Setaria faberii
Description: as §2, §3

corn = experiment: Test B pre/postemergence corn; assay type: in vivo, Zea mays
Outline: as §1

cocklebur = experiment: Test B pre/postemergence cocklebur; assay type: in vivo, Xanthium strumarium
Description: as §2, §3

[1] = Postemergence, Rate 125 g/ha, scale of 0 to 10 where 0 is no effect and 10 is complete control
[2] = Preemergence, Rate 62 g/ha, scale 0 to 10 (0 no effect, 10 complete control)
[3] = Preemergence, Rate 125 g/ha, 0 is no effect, 10 is complete control
[4] = Preemergence, Rate 250 g/ha, scale 0 to 10, 0 is no effect, 10 is complete control
[5] = Preemergence, Rate 500 g/ha, scale 0 to 10 (0 no effect, 10 complete control)
[6] = Rate 62 g/ha, Postemergence, scale of 0 to 10 where 0 is no effect and 10 is complete control
[7] = Rate 250 g/ha, Postemergence, scale 0 to 10, 0 is no effect, 10 is complete control
[8] = Rate 500 g/ha, Postemergence, scale 0 to 10

CC(C)N(C(=O)n1oc(=O)n(C(C)c2ccccc2)c1=O)c1ccc(F)cc1 (stereo not shown) [Compound 134]
Morningglory plant response rating (morningglory; [1]): 6
Morningglory plant response rating (morningglory; [2]): 0
Morningglory plant response rating (0 to 10 scale) (morningglory; [3]): 0
Morningglory plant response rating (morningglory; [4]): 0
Morningglory plant response rating (morningglory; [5]): 1
Morningglory plant response rating (morningglory; [6]): 5
Plant response rating, Morningglory (morningglory; [7]): 8
Morningglory plant response rating (morningglory; [8]): 8
Blackgrass plant response rating (blackgrass; [1]): 0
Blackgrass plant response rating (blackgrass; [2]): 0
Blackgrass plant response rating (0 to 10 scale) (blackgrass; [3]): 0
Blackgrass plant response rating (blackgrass; [4]): 2
Blackgrass plant response rating (blackgrass; [5]): 2
Blackgrass plant response rating (blackgrass; [6]): 0
Plant response rating, Blackgrass (blackgrass; [7]): 0
Blackgrass plant response rating (blackgrass; [8]): 7
Soybean plant response rating (soybean; [1]): 1
Soybean plant response rating (soybean; [2]): 0
Soybean plant response rating (0 to 10 scale) (soybean; [3]): 0
Soybean plant response rating (soybean; [4]): 0
Soybean plant response rating (soybean; [5]): 0
Soybean plant response rating (soybean; [6]): 1
Plant response rating, Soybean (soybean; [7]): 1
Soybean plant response rating (soybean; [8]): 1
Nutsedge plant response rating (purple nutsedge; [1]): 0
Nutsedge plant response rating (purple nutsedge; [2]): 0
Nutsedge plant response rating (0 to 10 scale) (purple nutsedge; [3]): 0
Nutsedge plant response rating (purple nutsedge; [4]): 0
Nutsedge plant response rating (purple nutsedge; [5]): 0
Nutsedge plant response rating (purple nutsedge; [6]): 0
Plant response rating, Nutsedge (purple nutsedge; [7]): 0
Nutsedge plant response rating (purple nutsedge; [8]): 0
B. signalgrass plant response rating (surinam grass; [1]): 0
B. signalgrass plant response rating (surinam grass; [2]): 0
B. signalgrass plant response rating (0 to 10 scale) (surinam grass; [3]): 2
B. signalgrass plant response rating (surinam grass; [4]): 6
B. signalgrass plant response rating (surinam grass; [5]): 8
B. signalgrass plant response rating (surinam grass; [6]): 0
Plant response rating, B. signalgrass (surinam grass; [7]): 0
B. signalgrass plant response rating (surinam grass; Rate 500 g/ha, Postemergence, scale of 0 to 10 where 0 is no effect and 10 is complete control): 2
Wild oats plant response rating (wild oat; [1]): 0
Wild oats plant response rating (wild oat; [2]): 0
Wild oats plant response rating (0 to 10 scale) (wild oat; [3]): 0
Wild oats plant response rating (wild oat; [4]): 2
Wild oats plant response rating (wild oat; [5]): 2
Wild oats plant response rating (wild oat; [6]): 0
Plant response rating, Wild oats (wild oat; [7]): 0
Wild oats plant response rating (wild oat; [8]): 0
Crabgrass plant response rating (crabgrass; [1]): 0
Crabgrass plant response rating (crabgrass; [2]): 2
Crabgrass plant response rating (0 to 10 scale) (crabgrass; [3]): 6
Crabgrass plant response rating (crabgrass; [4]): 9
Crabgrass plant response rating (crabgrass; [5]): 9
Crabgrass plant response rating (crabgrass; [6]): 0
Plant response rating, Crabgrass (crabgrass; [7]): 4
Crabgrass plant response rating (crabgrass; [8]): 9
Velvetleaf plant response rating (velvetleaf; [1]): 0
Velvetleaf plant response rating (velvetleaf; [2]): 0
Velvetleaf plant response rating (0 to 10 scale) (velvetleaf; [3]): 0
Velvetleaf plant response rating (velvetleaf; [4]): 2
Velvetleaf plant response rating (velvetleaf; [5]): 7
Velvetleaf plant response rating (velvetleaf; [6]): 0
Plant response rating, Velvetleaf (velvetleaf; [7]): 0
Velvetleaf plant response rating (velvetleaf; [8]): 4
Bedstraw plant response rating (bedstraw; [1]): 4
Bedstraw plant response rating (bedstraw; [2]): 0
Bedstraw plant response rating (0 to 10 scale) (bedstraw; [3]): 0
Bedstraw plant response rating (bedstraw; [4]): 0
Bedstraw plant response rating (bedstraw; [5]): 3
Bedstraw plant response rating (bedstraw; [6]): 4
Plant response rating, Bedstraw (bedstraw; [7]): 4
Wheat plant response rating (wheat; [1]): 0
Wheat plant response rating (wheat; [2]): 0
Wheat plant response rating (0 to 10 scale) (wheat; [3]): 0
Wheat plant response rating (wheat; [4]): 0
Wheat plant response rating (wheat; [5]): 0
Wheat plant response rating (wheat; [6]): 0
Plant response rating, Wheat (wheat; [7]): 0
Wheat plant response rating (wheat; [8]): 0
Rape plant response rating (rape; [1]): 0
Rape plant response rating (rape; [2]): 0
Rape plant response rating (0 to 10 scale) (rape; [3]): 0
Rape plant response rating (rape; [4]): 0
Rape plant response rating (rape; [5]): 6
Rape plant response rating (rape; [6]): 0
Plant response rating, Rape (rape; [7]): 0
Rape plant response rating (rape; [8]): 0
Redroot pigweed plant response rating (pigweed; [1]): 0
Redroot pigweed plant response rating (pigweed; [2]): 0
Redroot pigweed plant response rating (0 to 10 scale) (pigweed; [3]): 0
Redroot pigweed plant response rating (pigweed; [4]): 0
Redroot pigweed plant response rating (pigweed; [5]): 2
Redroot pigweed plant response rating (pigweed; [6]): 0
Plant response rating, Redroot pigweed (pigweed; [7]): 0
Redroot pigweed plant response rating (pigweed; [8]): 0
Sugarbeets plant response rating (sugar beet; [1]): 0
Sugarbeets plant response rating (sugar beet; [2]): 0
Sugarbeets plant response rating (0 to 10 scale) (sugar beet; [3]): 2
Sugarbeets plant response rating (sugar beet; [4]): 4
Sugarbeets plant response rating (sugar beet; [5]): 7
Sugarbeets plant response rating (sugar beet; [6]): 0
Plant response rating, Sugarbeets (sugar beet; [7]): 0
Sugarbeets plant response rating (sugar beet; [8]): 2
Giant foxtail plant response rating (giant foxtail; [1]): 0
Giant foxtail plant response rating (giant foxtail; [2]): 6
Giant foxtail plant response rating (0 to 10 scale) (giant foxtail; [3]): 9
Giant foxtail plant response rating (giant foxtail; [4]): 10
Giant foxtail plant response rating (giant foxtail; [5]): 10
Giant foxtail plant response rating (giant foxtail; [6]): 0
Plant response rating, Giant foxtail (giant foxtail; [7]): 0
Giant foxtail plant response rating (giant foxtail; [8]): 3
Corn plant response rating (corn; [1]): 0
Corn plant response rating (corn; [2]): 0
Corn plant response rating (0 to 10 scale) (corn; [3]): 0
Corn plant response rating (corn; [4]): 0
Corn plant response rating (corn; [5]): 0
Corn plant response rating (corn; [6]): 0
Plant response rating, Corn (corn; [7]): 0
Corn plant response rating (corn; [8]): 0
Cocklebur plant response rating (cocklebur; [1]): 0
Cocklebur plant response rating (cocklebur; [2]): 0
Cocklebur plant response rating (0 to 10 scale) (cocklebur; [3]): 0
Cocklebur plant response rating (cocklebur; [4]): 0
Cocklebur plant response rating (cocklebur; [5]): 0
Cocklebur plant response rating (cocklebur; [6]): 0
Plant response rating, Cocklebur (cocklebur; [7]): 0
Cocklebur plant response rating (cocklebur; [8]): 1
